Data reported in patent US7045550B2, “Polyamines and analogs for protecting cells during cancer chemotherapy and radiotherapy” (Wisconsin Alumni Research Foundation, priority 2001, dated 2006).

Columns and labels:
[1] = test system: rat pups challenged with cytoxan; experiment: Cytoxan (CTX)-induced alopecia model in rat pups, topical polyamine effector; format: in vivo, Sprague Dawley rat; conditions: 5 mM; versus naturally-occurring polyamines or simple polyamine analogs
Experimental: (§1) Induction of alopecia by cytoxan (CTX). Lactating Sprague Dawley mother rats with rat pups were purchased from Harlan Sprague Dawley (Indianapolis, Ind.). The mother rats were given food and water ad libitum. The rats pups were tested in the model of chemotherapy-induced alopecia described by Hussein A. M. et al., Science: 249, 1564 (1990). Cytoxan (CTX), a chemotherapeutic widely used in the treatment of cancer, was used to induce alopecia in the rats. A common side effect of cytoxan in patients is alopecia. Cytoxan and polyamine effector compounds were purchased from Sigma Chemicals Co. (St. Louis, Mo.). To produce CTX-induced alopecia, 7 to 10 day old rat pups were injected i.p. with 35 mg/kg of CTX prepared in phosphate-buffered saline. To produce reproducible CTX induced alopecia, we first tested several concentrations (35, 40, 45 ug/gm body weight) of CTX in phosphate-buffered saline (PBS), which was injected i.p. in 7–10 day old pups. Seven to ten days after CTX treatment the pups were examined to determine the degree of hair loss. The density of hair on the pups was then determined. 100% hair density represents that found on the untreated control pups while 0% represented pups with total hair loss. It was observed that 35 ug/gm of CTX was sufficient to induce 100% hair loss approximately 7 days after cytoxan challenge, and this concentration was used in subsequent experiments.
Different types of polyamine effector agents were tested in this model. The effectors were prepared in a delivery vehicle, consisting of from 60–100% ethanol in water, depending on the solubility of the compound. The compounds in ethanol/water solution from 50–150 μl in volume were topically administered to the backs of the pups once per day before and after CTX challenge. Using a micropipette, the formulation was applied to approximately 2 cm^2 section of skin to the backs of the rat pups. Specifically, the pups were treated once daily for the 4–5 days before CTX challenge, once on the day of CTX challenge and once daily for 5 days afterwards. Control groups consisted of pups receiving only delivery vehicle. Control groups treated with delivery vehicle were tested as part of every treatment study. Two or more animals were tested per group in both the control and test groups.
Approximately 7 to 10 days after CTX treatment, the pups were evaluated for alopecia. Hair loss was evaluated using a modified alopecia-scoring index described by Chen G. et al., Int. J. Cancer: 75, 303 (1998). A score of 0=no hair loss; a score of 1=10–30% hair loss; a score of 2=40–60% hair loss; a score of 3=70–90% hair loss; and a score of 4=100% hair loss.
as §1, with “It was observed that 35 ug/gm of CTX was sufficient to induce 100% hair loss approximately 7 days after cytoxan challenge, and this concentration was used in subsequent experiments.” left out

[2] = test system: rat pups challenged with cytarbine; experiment: Cytarbine-induced alopecia model in rat pups; format: in vivo; conditions: treatment (1 mM), vehicle 4.0
From the text: (§2) Alopecia was induced in rat pups by Cytoxan, cytarbine, doxorubicin and radiation, according to the methods described in the previous examples. Polyamines from three different structural families, obtained from two different sources, gave excellent results in animal alopecia models for Cytoxan, cytarbine and doxorubicin.

[3] = test system: rat pups challenged with doxorubicin; experiment: Doxorubicin-induced alopecia model in rat pups; format: in vivo; conditions: vehicle 4.0
From the text: as §2

CCNCCCCNCCCCNCCCCNCCCCNC/C=C/CNCCCCNCCCCNCCCCNCCCCNCC [SL-11144]
activity in both the alopecia and dermatitis models [1]: overall greater activity | Avg Alopecia Scores [2]: 3.0 | Avg Alopecia Score [3]: 0.0
